# Experimental data: the NIST ThermoML archive (doi:10.1021/je800224k)
# ± gives the expanded uncertainty stated by the source.
# Details: Liquid
structure (smiles),measurement,setting,value
CCCCCCn1cc[n+](C)c1.F[B-](F)(F)F [1-hexyl-3-methylimidazolium tetrafluoroborate],mass density,"293.15 K, 101.33 kPa, Vibrating tube method",1148.5 ± 3.4 kg/m3
same,mass density,"313.15 K, 101.33 kPa, Vibrating tube method",1134.7 ± 3.3 kg/m3
same,mass density,"313.3 K, 10000 kPa, Bellows volumetry",1139 ± 3 kg/m3
same,mass density,"313.3 K, 20000 kPa, Bellows volumetry",1144 ± 3 kg/m3
same,mass density,"313.3 K, 30000 kPa, Bellows volumetry",1149 ± 3 kg/m3
same,mass density,"313.3 K, 40000 kPa, Bellows volumetry",1154 ± 3 kg/m3
same,mass density,"313.3 K, 50000 kPa, Bellows volumetry",1158 ± 3 kg/m3
same,mass density,"313.3 K, 60000 kPa, Bellows volumetry",1162 ± 3 kg/m3
same,mass density,"313.3 K, 70000 kPa, Bellows volumetry",1167 ± 3 kg/m3
same,mass density,"313.3 K, 80000 kPa, Bellows volumetry",1171 ± 3 kg/m3
same,mass density,"313.3 K, 90000 kPa, Bellows volumetry",1174 ± 3 kg/m3
same,mass density,"313.3 K, 100000 kPa, Bellows volumetry",1178 ± 4 kg/m3
same,mass density,"313.3 K, 110000 kPa, Bellows volumetry",1182 ± 4 kg/m3
same,mass density,"313.3 K, 120000 kPa, Bellows volumetry",1186 ± 4 kg/m3
same,mass density,"313.3 K, 130000 kPa, Bellows volumetry",1189 ± 4 kg/m3
same,mass density,"313.3 K, 140000 kPa, Bellows volumetry",1193 ± 4 kg/m3
same,mass density,"313.3 K, 150000 kPa, Bellows volumetry",1196 ± 4 kg/m3
same,mass density,"313.3 K, 160000 kPa, Bellows volumetry",1199 ± 4 kg/m3
same,mass density,"313.3 K, 170000 kPa, Bellows volumetry",1202 ± 4 kg/m3
same,mass density,"313.3 K, 180000 kPa, Bellows volumetry",1206 ± 4 kg/m3
same,mass density,"313.3 K, 190000 kPa, Bellows volumetry",1209 ± 4 kg/m3
same,mass density,"313.3 K, 200000 kPa, Bellows volumetry",1212 ± 4 kg/m3
same,mass density,"332.5 K, 10000 kPa, Bellows volumetry",1126 ± 3 kg/m3
same,mass density,"332.5 K, 20000 kPa, Bellows volumetry",1131 ± 3 kg/m3
same,mass density,"332.5 K, 30000 kPa, Bellows volumetry",1136 ± 3 kg/m3
same,mass density,"332.5 K, 40000 kPa, Bellows volumetry",1141 ± 3 kg/m3
same,mass density,"332.5 K, 50000 kPa, Bellows volumetry",1146 ± 3 kg/m3
same,mass density,"332.5 K, 60000 kPa, Bellows volumetry",1150 ± 3 kg/m3
same,mass density,"332.5 K, 70000 kPa, Bellows volumetry",1154 ± 3 kg/m3
same,mass density,"332.5 K, 80000 kPa, Bellows volumetry",1159 ± 3 kg/m3
same,mass density,"332.5 K, 90000 kPa, Bellows volumetry",1163 ± 3 kg/m3
same,mass density,"332.5 K, 100000 kPa, Bellows volumetry",1167 ± 3 kg/m3
same,mass density,"332.5 K, 110000 kPa, Bellows volumetry",1170 ± 3 kg/m3
same,mass density,"332.5 K, 120000 kPa, Bellows volumetry",1174 ± 3 kg/m3
same,mass density,"332.5 K, 130000 kPa, Bellows volumetry",1178 ± 3 kg/m3
same,mass density,"332.5 K, 140000 kPa, Bellows volumetry",1181 ± 4 kg/m3
same,mass density,"332.5 K, 150000 kPa, Bellows volumetry",1185 ± 4 kg/m3
same,mass density,"332.5 K, 160000 kPa, Bellows volumetry",1188 ± 4 kg/m3
same,mass density,"332.5 K, 170000 kPa, Bellows volumetry",1192 ± 4 kg/m3
same,mass density,"332.5 K, 180000 kPa, Bellows volumetry",1195 ± 4 kg/m3
same,mass density,"332.5 K, 190000 kPa, Bellows volumetry",1198 ± 4 kg/m3
same,mass density,"332.5 K, 200000 kPa, Bellows volumetry",1201 ± 4 kg/m3
same,mass density,"333.15 K, 101.33 kPa, Vibrating tube method",1121 ± 3.3 kg/m3
same,mass density,"352.6 K, 10000 kPa, Bellows volumetry",1113 ± 3 kg/m3
same,mass density,"352.6 K, 20000 kPa, Bellows volumetry",1118 ± 3 kg/m3
same,mass density,"352.6 K, 30000 kPa, Bellows volumetry",1123 ± 3 kg/m3
same,mass density,"352.6 K, 40000 kPa, Bellows volumetry",1128 ± 3 kg/m3
same,mass density,"352.6 K, 50000 kPa, Bellows volumetry",1133 ± 3 kg/m3
same,mass density,"352.6 K, 60000 kPa, Bellows volumetry",1138 ± 3 kg/m3
same,mass density,"352.6 K, 70000 kPa, Bellows volumetry",1142 ± 3 kg/m3
same,mass density,"352.6 K, 80000 kPa, Bellows volumetry",1147 ± 3 kg/m3
same,mass density,"352.6 K, 90000 kPa, Bellows volumetry",1151 ± 3 kg/m3
same,mass density,"352.6 K, 100000 kPa, Bellows volumetry",1155 ± 3 kg/m3
same,mass density,"352.6 K, 110000 kPa, Bellows volumetry",1159 ± 3 kg/m3
same,mass density,"352.6 K, 120000 kPa, Bellows volumetry",1163 ± 3 kg/m3
same,mass density,"352.6 K, 130000 kPa, Bellows volumetry",1167 ± 3 kg/m3
same,mass density,"352.6 K, 140000 kPa, Bellows volumetry",1170 ± 3 kg/m3
same,mass density,"352.6 K, 150000 kPa, Bellows volumetry",1174 ± 3 kg/m3
same,mass density,"352.6 K, 160000 kPa, Bellows volumetry",1177 ± 3 kg/m3
same,mass density,"352.6 K, 170000 kPa, Bellows volumetry",1181 ± 4 kg/m3
same,mass density,"352.6 K, 180000 kPa, Bellows volumetry",1184 ± 4 kg/m3
same,mass density,"352.6 K, 190000 kPa, Bellows volumetry",1187 ± 4 kg/m3
same,mass density,"352.6 K, 200000 kPa, Bellows volumetry",1191 ± 4 kg/m3
same,mass density,"353.15 K, 101.33 kPa, Vibrating tube method",1107.6 ± 3.3 kg/m3
same,mass density,"372.7 K, 10000 kPa, Bellows volumetry",1099 ± 3 kg/m3
same,mass density,"372.7 K, 20000 kPa, Bellows volumetry",1105 ± 3 kg/m3
same,mass density,"372.7 K, 30000 kPa, Bellows volumetry",1111 ± 3 kg/m3
same,mass density,"372.7 K, 40000 kPa, Bellows volumetry",1116 ± 3 kg/m3
same,mass density,"372.7 K, 50000 kPa, Bellows volumetry",1121 ± 3 kg/m3
same,mass density,"372.7 K, 60000 kPa, Bellows volumetry",1126 ± 3 kg/m3
same,mass density,"372.7 K, 70000 kPa, Bellows volumetry",1131 ± 3 kg/m3
same,mass density,"372.7 K, 80000 kPa, Bellows volumetry",1135 ± 3 kg/m3
same,mass density,"372.7 K, 90000 kPa, Bellows volumetry",1139 ± 3 kg/m3
same,mass density,"372.7 K, 100000 kPa, Bellows volumetry",1144 ± 3 kg/m3
same,mass density,"372.7 K, 110000 kPa, Bellows volumetry",1148 ± 3 kg/m3
same,mass density,"372.7 K, 120000 kPa, Bellows volumetry",1152 ± 3 kg/m3
same,mass density,"372.7 K, 130000 kPa, Bellows volumetry",1156 ± 3 kg/m3
same,mass density,"372.7 K, 140000 kPa, Bellows volumetry",1160 ± 3 kg/m3
same,mass density,"372.7 K, 150000 kPa, Bellows volumetry",1163 ± 3 kg/m3
same,mass density,"372.7 K, 160000 kPa, Bellows volumetry",1167 ± 3 kg/m3
same,mass density,"372.7 K, 170000 kPa, Bellows volumetry",1170 ± 3 kg/m3
same,mass density,"372.7 K, 180000 kPa, Bellows volumetry",1174 ± 3 kg/m3
same,mass density,"372.7 K, 190000 kPa, Bellows volumetry",1177 ± 3 kg/m3
same,mass density,"372.7 K, 200000 kPa, Bellows volumetry",1180 ± 4 kg/m3
same,mass density,"393 K, 10000 kPa, Bellows volumetry",1087 ± 3 kg/m3
same,mass density,"393 K, 20000 kPa, Bellows volumetry",1093 ± 3 kg/m3
same,mass density,"393 K, 30000 kPa, Bellows volumetry",1098 ± 3 kg/m3
same,mass density,"393 K, 40000 kPa, Bellows volumetry",1104 ± 3 kg/m3
same,mass density,"393 K, 50000 kPa, Bellows volumetry",1109 ± 3 kg/m3
same,mass density,"393 K, 60000 kPa, Bellows volumetry",1114 ± 3 kg/m3
same,mass density,"393 K, 70000 kPa, Bellows volumetry",1119 ± 3 kg/m3
same,mass density,"393 K, 80000 kPa, Bellows volumetry",1124 ± 3 kg/m3
